# In patent publication EP2790511B1 (Merck Sharp & Dohme Corp., priority 2011, dated 2013):
# Molecular target: T1, hROMK (hKir1.1) (Homo sapiens, UniProt P48048)
# T1 construct: expressed in transfected cells
# T1 sequence (P48048 1-391): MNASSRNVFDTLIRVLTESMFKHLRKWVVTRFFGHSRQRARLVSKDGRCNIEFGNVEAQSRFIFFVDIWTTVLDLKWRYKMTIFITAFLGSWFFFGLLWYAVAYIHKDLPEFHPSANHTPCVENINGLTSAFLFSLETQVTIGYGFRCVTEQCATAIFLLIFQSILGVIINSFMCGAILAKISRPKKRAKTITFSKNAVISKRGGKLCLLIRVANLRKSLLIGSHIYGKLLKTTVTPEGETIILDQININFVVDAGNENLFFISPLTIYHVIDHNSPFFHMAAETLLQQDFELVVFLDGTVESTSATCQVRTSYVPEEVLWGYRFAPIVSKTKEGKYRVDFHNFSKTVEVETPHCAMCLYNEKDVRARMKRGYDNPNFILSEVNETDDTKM
# Test: Thallium Flux Assay
# Format: cell-based
# Conditions: HEK293 cells stably expressing hROMK (hKir1.1), FLIPR-Tetra; read-out: Thallium Flux IC50
# In short: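 HEK293 cells stably expressing hROMK, loaded with FluxOR dye 90 min at ambient temperature, then compound 30 min with 0.3 mM ouabain in probenecid buffer pH 7.4.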
row,Structure (SMILES),IC50
1,"N#Cc1c(F)cc([C@H]2CN3CCN(C(=O)Cc4ccc(-n5cnnn5)nc4)C[C@@H]3CO2)cc1F [Example 108, 2,6-difluoro-4-[(3S,9aR)-8-{[6-(1H-tetrazol-1-yl)pyridin-3-yl]acetyl}octahydropyrazino[2,1-c][1,4]oxazin-3-yl]benzonitrile]",490 nM
2,"N#Cc1c(F)cc([C@H]2CN3CCN(C(=O)Cc4ccc(-n5cnnn5)nc4)C[C@H]3CO2)cc1F [Example 109, 2,6-difluoro-4-[(3S,9aS)-8-{[6-(1H-tetrazol-1-yl)pyridin-3-yl]acetyl}octahydropyrazino[2,1-c][1,4]oxazin-3-yl]benzonitrile]",190 nM
3,"N#Cc1c(F)cc([C@@H]2CN3CCN(C(=O)Cc4ccc(-n5cnnn5)nc4)C[C@H]3CO2)cc1F [Example 110, 2,6-difluoro-4-[(3R,9aS)-8-{[6-(1H-tetrazol-1-yl)pyridin-3-yl]acetyl}octahydropyrazino[2,1-c][1,4]oxazin-3-yl]benzonitrile]",370 nM
4,"COc1cc([C@@H]2CN3CCN(C(=O)Cc4ccc(-n5cnnn5)nc4)C[C@@H]3CO2)cc(F)c1C#N [Example 111, 2-fluoro-6-methoxy-4-[(3R,9aR)-8-{[6-(1H-tetrazol-1-vl)pvridin-3-yl]acetyl}octahydropyrazino[2,1-c][1,4]oxazin-3-yl]benzonitrile]",170 nM
5,"COc1cc([C@H]2CN3CCN(C(=O)Cc4ccc(-n5cnnn5)nc4)C[C@@H]3CO2)cc(F)c1C#N [Example 112, 2-fluoro-6-methoxy-4-[(3S,9aR)-8-{[6-(1H-tetrazol-1-vl)pvridin-3-yl]acetyl}octahydropyrazino[2,1-c][1,4]oxazin-3-yl]benzonitrile]",220 nM
6,"COc1cc([C@H]2CN3CCN(C(=O)Cc4ccc(-n5cnnn5)nc4)C[C@H]3CO2)cc(F)c1C#N [Example 113, 2-fluoro-6-methoxy-4-[(3S,9aS)-8-{[6-(1H-tetrazol-1-vl)pvridin-3-yl]acetyl}octahydropyrazino[2,1-c][1,4]oxazin-3-yl]benzonitrile]",120 nM
7,"Cc1c(C#N)cccc1[C@@H]1CN2CCN(C(=O)Cc3cnc(-n4cnnn4)nc3)C[C@@H]2CO1 [Example 116, 2-methyl-3-[(3R,9aR)-8-{[2-(1H-tetrazol-1-yl)pyrimidin-5-yl]acetyl}octahydropyrazino[2,1-c] [1,4]oxazin-3-yl]benzonitrile]",330 nM
8,"Cc1nc(-n2cnnn2)ncc1CC(=O)N1CCN2C[C@@H](c3ccc(F)c(C#N)c3C)OC[C@H]2C1 [Example 120, 6-fluoro-2-methyl-3-[(3R9aR)-8-{[4-methyl-2-(1H-tetrazol-1-yl)pyrimidin-5-yl]acetyl}octahydropyrazino[2,1-c][1,4]oxazin-3-yl]benzonitrile]",200 nM
9,"Cc1c([C@@H]2CN3CCN(C(=O)Cc4cnc(-n5cnnn5)nc4)C[C@@H]3CO2)ccc2c1COC2=O [Example 122, 4-methyl-5-[(3R,9aR)-8-{[2-(1H-tetrazol-1-yl)pyrimidin-5-yl]acetyl}octahydropyrazino[2,1-c][1,4]oxazin-3-yl]-2-benzofuran-1(3H)-one]",390 nM
10,"COc1cc(-n2cnnn2)cnc1CC(=O)N1CCN2C[C@@H](c3ccc(F)c(C#N)c3C)OC[C@H]2C1 [Example 124, 6-fluoro-3-[(3R,9aR)-8-{[3-methoxy-5-(1H-tetrazol-1-vl)pvridin-2-yl]acetyl}octahydropyrazino[2,1-c][1,4]oxazin-3-yl]-2-methylbenzonitrile]",330 nM
11,"N#Cc1c(F)ccc([C@H]2CN3CCN(C(=O)Cc4cnc(-n5cnnn5)nc4)C[C@@H]3CO2)c1Cl [Example 126, 2-chloro-6-fluoro-3-[(3S,9aR)-8-{[2-(1H-tetrazol-1-yl)pyrimidin-5-yl]acetyl}octahydropyrazino[2,1-c][1,4]oxazin-3-yl]benzonitrile]",140 nM
12,"Cc1nc(CC(=O)N2CCN3C[C@@H](c4ccc(F)c(C#N)c4C)OC[C@@H]3C2)ccc1-n1cnnn1 [Example 128, 6-fluoro-2-methyl-3-[(3R,9aS)-8-{[6-methyl-5-(1H-tetrazol-1-vl)pvridin-2-yl]acetyl}octahydropyrazino[2,1-c][1,4]oxazin-3-yl]benzonitrile]",180 nM
13,"Cc1cc(CC(=O)N2CCN3C[C@@H](c4ccc(F)c(C#N)c4C)OC[C@H]3C2)ncc1-n1cnnn1 [Example 129, 6-fluoro-2-methyl-3-[(3R,9aR)-8-{[4-methyl-5-(1H-tetrazol-1-yl)pyridin-2-yl]acetyl}octahydropyrazino[2,1-c][1,4]oxazin-3-yl]benzonitrile]",250 nM
14,"Cc1nc(CC(=O)N2CCN3C[C@H](c4ccc(F)c(C#N)c4C)OC[C@H]3C2)ccc1-n1cnnn1 [Example 131, 6-fluoro-2-methyl-3-[(3S,9aR)-8-{[6-methyl-5-(1H-tetrazol-1-vl)pvridin-2-yl]acetul}octahydropyrazino[2,1-c][1,4]oxazin-3-yl]benzonitrile]",200 nM
15,"Cc1cc(CC(=O)N2CCN3C[C@H](c4ccc(F)c(C#N)c4C)OC[C@H]3C2)cnc1-n1cnnn1 [Example 134, 6-fluoro-2-methyl-3-[(3S,9aR)-8-{[5-methyl-6-(1H-tetrazol-1-yl)pyridin-3-yl]acetyl}octahydropyrazino[2,1-c][1,4]oxazin-3-yl]benzonitrile]",280 nM

# Same assay, conditions: Thallium Flux IC50
row,Structure (SMILES),IC50
1,"COc1cc([C@@H]2CN3CCN(C(=O)Cc4ccc(-n5cnnn5)nc4)C[C@H]3CO2)cc(F)c1C#N [Example 114, 2-fluoro-6-methoxy-4-[(3R,9aS)-8-{[6-(1H-tetrazol-1-vl)pvridin-3-yl]acetyl}octahydropyrazino[2,1-c][1,4]oxazin-3-yl]benzonitrile]",110 nM
2,"N#Cc1c(F)cc([C@@H]2CN3CCN(C(=O)Cc4cnc(-n5cnnn5)nc4)C[C@@H]3CO2)cc1F [Example 115, 2,6-difluoro-4-[(3R,9aR)-8-{[2-(1H-tetrazol-1-yl)pyrimidin-5-yl]acetyl}octahydropyrazino[2,1-c][1,4]oxazin-3-yl]benzonitrile]",270 nM
3,"Cc1c(C#N)cccc1[C@@H]1CN2CCN(C(=O)Cc3ccc(-n4cnnn4)nc3)C[C@@H]2CO1 [Example 117, 2-methyl-3-[(3R,9aR)-8-{[6-(1H-tetrazol-1-yl)pyridin-3-yl]acetyl}octahydropyrazino[2,1-c] [1,4]oxazin-3-yl]benzonitrile]",220 nM
4,"Cc1nc(-n2cnnn2)ncc1CC(=O)N1CCN2C[C@@H](c3ccc(F)c(C#N)c3C)OC[C@@H]2C1 [Example 118, 6-fluoro-2-methyl-3-[(3R,9aS)-8-{[4-methyl-2-(1H-tetrazol-1-vl)pvrimidin-5-yl]acetyl}octahydropyrazino[2,1-c][1,4]oxazin-3-yl]benzonitrile]",120 nM
5,"Cc1nc(-n2cnnn2)ncc1CC(=O)N1CCN2C[C@H](c3ccc(F)c(C#N)c3C)OC[C@H]2C1 [Example 119, 6-fluoro-2-methyl-3-[(3S,9aR)-8-{[4-methyl-2-(1H-tetrazol-1-vl)pvrimidin-5-yl]acetyl}octahydropyrazino[2,1-c][1,4]oxazin-3-yl]benzonitrile]",330 nM
6,"Cc1c([C@@H]2CN3CCN(C(=O)Cc4cnc(-n5cnnn5)cn4)C[C@@H]3CO2)ccc2c1COC2=O [Example 123, 4-methyl-5-[(3R,9aR)-8-{[5-(1H-tetrazol-1-yl)pyrazin-2-yl]acetyl}octahydropyrazino[2,1-c] [1,4]oxazin-3-yl]-2-benzofuran-1(3H)-one]",690 nM
7,"N#Cc1c(F)ccc([C@@H]2CN3CCN(C(=O)Cc4cnc(-n5cnnn5)nc4)C[C@@H]3CO2)c1Cl [Example 125, 2-chloro-6-fluoro-3-[(3R,9aR)-8-{[2-(1H-tetrazol-1-yl)pyrimidin-5-yl]acetyl}octahydropyrazino[2,1-c][1,4]oxazin-3-yl]benzonitrile]",60 nM
8,"Cc1nc(CC(=O)N2CCN3C[C@H](c4ccc(F)c(C#N)c4C)OC[C@@H]3C2)ccc1-n1cnnn1 [Example 127, 6-fluoro-2-methyl-3-[(3S,9aS)-8-{[6-methyl-5-(1H-tetrazol-1-vl)pvridin-2-yl]acetyl}octahydropyrazino[2,1-c][1,4]oxazin-3-yl]benzonitrile]",90 nM
9,"Cc1cc(CC(=O)N2CCN3C[C@H](c4ccc(F)c(C#N)c4C)OC[C@@H]3C2)ncc1-n1cnnn1 [Example 130, 6-fluoro-2-methyl-3-[(3S,9aS)-8-{[4-methyl-5-(1H-tetrazol-1-yl)pyridin-2-yl]acetyl}octahydropyrazino[2,1-c][1,4]oxazin-3-yl]benzonitrile]",190 nM
10,"COc1ccc([C@@H]2CN3CCN(C(=O)Cc4cnc(-n5cnnn5)nc4)C[C@H]3CO2)c(C)c1C#N [Example 135, 6-methoxy-2-methyl-3-[(3R,9aS)-8-{[2-(1H-tetrazol-1-vl)pvrimidin-5-yl]acetyl}octahydropyrazino[2,1-c][1,4]oxazin-3-yl]benzonitrile]",330 nM
11,"N#Cc1c(F)ccc([C@@H]2CN3CCN(C(=O)Cc4cnc(-n5cnnn5)nc4)C[C@H]3CO2)c1Cl [Example 136, 2-chloro-6-fluoro-3-[(3R,9aS)-8-{[2-(1H-tetrazol-1-yl)pyrimidin-5-yl]acetyl}octahydropyrazino[2,1-c][1,4]oxazin-3-yl]benzonitrile]",40 nM
